In PubChem BioAssay AID1963843 (Molecular Pharmacology Branch, DTP, NCI, 2024):

Test system: 616215-338-R-J1-PDC complex spheroid viability
Assay: Anticancer human tumor 616215-338-R-J1-PDC patient-derived colon adenocarcinoma cell line growth inhibition [POLQ]
Settings: for IC50: curve of first compound; for viability, T/C: stronger effect = lower value; active means viability on the fitted dose curve at most 10% of control; inactive means the rest
Procedure, shortened: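 Patient-derived tumour cells were co-cultured with HUVEC and mesenchymal stem cells as multicellular spheroids at 37 °C. They were treated with POLQ inhibitors (novobiocin, ART-558, RP6685) alone or combined with other agents. Top concentrations were at or near clinical Cmax (otherwise 10 microM; SN-38 at 1 microM), decreasing in half-log steps.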

[1] = second compound 0.0316 µM, first compound 0.0316 µM
[2] = second compound 0.0316 µM, first compound 0.1 µM
[3] = second compound 0.0316 µM, first compound 0.316 µM
[4] = second compound 0.0316 µM, first compound 1 µM
[5] = second compound 0.0316 µM, first compound 3.16 µM
[6] = second compound 0.0316 µM, first compound 10 µM
[7] = second compound 0.1 µM, first compound 0.0316 µM
[8] = second compound 0.1 µM, first compound 0.1 µM
[9] = second compound 0.1 µM, first compound 0.316 µM
[10] = second compound 0.1 µM, first compound 1 µM
[11] = second compound 0.1 µM, first compound 3.16 µM
[12] = second compound 0.1 µM, first compound 10 µM
[13] = second compound 0.316 µM, first compound 0.0316 µM
[14] = second compound 0.316 µM, first compound 0.1 µM
[15] = second compound 0.316 µM, first compound 0.316 µM
[16] = second compound 0.316 µM, first compound 1 µM
[17] = second compound 0.316 µM, first compound 3.16 µM
[18] = second compound 0.316 µM, first compound 10 µM
[19] = second compound 1 µM, first compound 0.0316 µM
[20] = second compound 1 µM, first compound 0.1 µM
[21] = second compound 1 µM, first compound 0.316 µM
[22] = second compound 1 µM, first compound 1 µM
[23] = second compound 1 µM, first compound 3.16 µM
[24] = second compound 1 µM, first compound 10 µM
[25] = second compound 3.16 µM, first compound 0.0316 µM
[26] = second compound 3.16 µM, first compound 0.1 µM
[27] = second compound 3.16 µM, first compound 0.316 µM
[28] = second compound 3.16 µM, first compound 1 µM
[29] = second compound 3.16 µM, first compound 3.16 µM
[30] = second compound 3.16 µM, first compound 10 µM
[31] = second compound 10 µM, first compound 0.0316 µM
[32] = second compound 10 µM, first compound 0.1 µM
[33] = second compound 10 µM, first compound 0.316 µM
[34] = second compound 10 µM, first compound 1 µM
[35] = second compound 10 µM, first compound 3.16 µM
[36] = second compound 10 µM, first compound 10 µM
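Further: spheroids exposed to compounds for one week before readout.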
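Wherever viability, T/C is given: percent viability relative to DMSO vehicle wells taken as 100%.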

CC(=O)O[C@H]1C(=O)[C@@]2(C)[C@H]([C@H](OC(=O)c3ccccc3)[C@]3(O)C[C@H](OC(=O)[C@H](O)[C@@H](NC(=O)c4ccccc4)c4ccccc4)C(C)=C1C3(C)C)[C@]1(OC(C)=O)CO[C@@H]1C[C@@H]2O + Nc1ccc(C#CCN(C(=O)Cc2ncc(C(F)(F)F)cc2C(F)(F)F)c2ccc(F)cc2)nn1
inactive: viability, T/C (second compound 0.0316 µM, first compound 0.00949 µM) 38.1% | viability, T/C (second compound 0.0316 µM, first compound 0.03 µM) 25.5% | viability, T/C (second compound 0.0316 µM, first compound 0.0949 µM) 22.9% | viability, T/C (second compound 0.0316 µM, first compound 0.3 µM) 18.4% | viability, T/C (second compound 0.0316 µM, first compound 0.949 µM) 16.6% | viability, T/C (second compound 0.0316 µM, first compound 3 µM) 17.7% | viability, T/C (second compound 0.1 µM, first compound 0.00949 µM) 50% | viability, T/C (second compound 0.1 µM, first compound 0.03 µM) 24.6% | viability, T/C (second compound 0.1 µM, first compound 0.0949 µM) 21.3% | viability, T/C (second compound 0.1 µM, first compound 0.3 µM) 17.4% | viability, T/C (second compound 0.1 µM, first compound 0.949 µM) 17.6% | viability, T/C (second compound 0.1 µM, first compound 3 µM) 19% | viability, T/C (second compound 0.316 µM, first compound 0.00949 µM) 42.3% | viability, T/C (second compound 0.316 µM, first compound 0.03 µM) 22.4% | viability, T/C (second compound 0.316 µM, first compound 0.0949 µM) 20.9% | viability, T/C (second compound 0.316 µM, first compound 0.3 µM) 19.1% | viability, T/C (second compound 0.316 µM, first compound 0.949 µM) 16.8% | viability, T/C (second compound 0.316 µM, first compound 3 µM) 14.8% | viability, T/C (second compound 1 µM, first compound 0.00949 µM) 41.1% | viability, T/C (second compound 1 µM, first compound 0.03 µM) 25% | viability, T/C (second compound 1 µM, first compound 0.0949 µM) 24.1% | viability, T/C (second compound 1 µM, first compound 0.3 µM) 26.1% | viability, T/C (second compound 1 µM, first compound 0.949 µM) 14% | viability, T/C (second compound 1 µM, first compound 3 µM) 16.6% | viability, T/C (second compound 3.16 µM, first compound 0.00949 µM) 30.2% | viability, T/C (second compound 3.16 µM, first compound 0.03 µM) 22.1% | viability, T/C (second compound 3.16 µM, first compound 0.0949 µM) 22.4% | viability, T/C (second compound 3.16 µM, first compound 0.3 µM) 20.2% | viability, T/C (second compound 3.16 µM, first compound 0.949 µM) 16.5% | viability, T/C (second compound 3.16 µM, first compound 3 µM) 15.1% | viability, T/C (second compound 10 µM, first compound 0.00949 µM) 36.9% | viability, T/C (second compound 10 µM, first compound 0.03 µM) 25% | viability, T/C (second compound 10 µM, first compound 0.0949 µM) 23.3% | viability, T/C (second compound 10 µM, first compound 0.3 µM) 18.4% | viability, T/C (second compound 10 µM, first compound 0.949 µM) 18.1% | viability, T/C (second compound 10 µM, first compound 3 µM) 21.6%
< 0.00949 µM: IC50 (second compound 0.0316 µM) | IC50 (second compound 0.1 µM) | IC50 (second compound 0.316 µM) | IC50 (second compound 1 µM) | IC50 (second compound 3.16 µM) | IC50 (second compound 10 µM)

O=C(Nc1ccc(O)c(NS(=O)(=O)c2ccc(F)cc2)c1)c1ccc(-c2ccccc2)cc1 + Nc1ccc(C#CCN(C(=O)Cc2ncc(C(F)(F)F)cc2C(F)(F)F)c2ccc(F)cc2)nn1
6.56 µM: IC50 (second compound 10 µM)
> 10 µM: IC50 (second compound 0.1 µM) | IC50 (second compound 0.316 µM) | IC50 (second compound 1 µM) | IC50 (second compound 3.16 µM)
9.93 µM: IC50 (second compound 0.0316 µM)
inactive: viability, T/C [1] 108% | viability, T/C [2] 105% | viability, T/C [3] 105% | viability, T/C [4] 104% | viability, T/C [5] 119% | viability, T/C [6] 49.7% | viability, T/C [7] 108% | viability, T/C [8] 105% | viability, T/C [9] 114% | viability, T/C [10] 105% | viability, T/C [11] 100% | viability, T/C [12] 56% | viability, T/C [13] 108% | viability, T/C [14] 107% | viability, T/C [15] 103% | viability, T/C [16] 104% | viability, T/C [17] 96.6% | viability, T/C [18] 72.6% | viability, T/C [19] 105% | viability, T/C [20] 106% | viability, T/C [21] 106% | viability, T/C [22] 101% | viability, T/C [23] 91.2% | viability, T/C [24] 54% | viability, T/C [25] 106% | viability, T/C [26] 103% | viability, T/C [27] 102% | viability, T/C [28] 102% | viability, T/C [29] 76.5% | viability, T/C [30] 50.7% | viability, T/C [31] 93.9% | viability, T/C [32] 84.2% | viability, T/C [33] 93.2% | viability, T/C [34] 105% | viability, T/C [35] 85.8% | viability, T/C [36] 29.3%

C#Cc1c(F)ccc2cc(O)cc(-c3ncc4c(N5CC6CCC(C5)N6)nc(OCC56CCCN5CC(F)C6)nc4c3F)c12 (stereo unspecified) + COC1C(OC(N)=O)C(O)C(Oc2ccc3c(O)c(NC(=O)c4ccc(O)c(CC=C(C)C)c4)c(=O)oc3c2C)OC1(C)C
inactive: viability, T/C [1] 108% | viability, T/C [2] 109% | viability, T/C [3] 101% | viability, T/C [4] 112% | viability, T/C [5] 113% | viability, T/C [6] 79.2% | viability, T/C [7] 103% | viability, T/C [8] 105% | viability, T/C [9] 98.2% | viability, T/C [10] 108% | viability, T/C [11] 95.8% | viability, T/C [12] 64.1% | viability, T/C [13] 110% | viability, T/C [14] 102% | viability, T/C [15] 110% | viability, T/C [16] 105% | viability, T/C [17] 103% | viability, T/C [18] 58.1% | viability, T/C [19] 105% | viability, T/C [20] 108% | viability, T/C [21] 109% | viability, T/C [22] 94.7% | viability, T/C [23] 103% | viability, T/C [24] 71.3% | viability, T/C [25] 105% | viability, T/C [26] 109% | viability, T/C [27] 103% | viability, T/C [28] 110% | viability, T/C [29] 104% | viability, T/C [30] 64% | viability, T/C [31] 94.5% | viability, T/C [32] 103% | viability, T/C [33] 109% | viability, T/C [34] 106% | viability, T/C [35] 100% | viability, T/C [36] 82.6%
> 10 µM: IC50 (second compound 0.0316 µM) | IC50 (second compound 0.1 µM) | IC50 (second compound 0.316 µM) | IC50 (second compound 1 µM) | IC50 (second compound 3.16 µM) | IC50 (second compound 10 µM)
